In patent publication US20220257684A1, “ANTI-COCCIDIAL PHYTOGENIC FORMULATIONS” (priority 2019, published 2022):
Values joined by “and” are separate entries in the source; they are usually repeats but may differ in a detail not shown here. Equal values may be shown once. Marks after values point to notes of the source that are not given here.

Key:
E. tenella oocysts = experiment: Sporulation assay; format: cell-based, Eimeria tenella; conditions: positive control, FIG. 2A
Procedure: FIGS. 2A-C are photomicrographs (upper panels) and bar graphs (lower panels) illustrating the in vitro effects of formulations comprising A. indica (AI), B. pilosa (BP), or a mixture of A. indica (AI) and B. pilosa (BP) on viability of E. tenella (ET) oocysts and its sporulation. The oocysts were pre-treated with PBS, sodium dithionite (SD), an inhibitor of oocyst sporulation or plant extracts containing AI (2A), BP (2B), or both AI and BP (2C) at the indicated dosages for 48 h. The oocysts were induced to sporulate by potassium dichromate for 2 days. The percentage of sporulating oocysts was counted using a microscope ([…]) and plotted into bar graphs (right panel); scale bar is 200 μm. Arrow indicates sporulating oocysts whilst arrowhead indicates non-sporulating oocysts.
Sporulation assay. The E tenella oocysts were pre-treated with PBS, boiling (100° C. for 30 min) or plant extracts at indicated doses for 48 h. The oocysts were incubated with 2% potassium dichromate for 2 days before sporulation. The percentage of sporulating oocysts (%) was counted.
The effects of the plant extracts on sporulation of E. ET oocysts were tested. Seventy percent of ET oocysts were able to sporulate in the in vitro culture (PBS, FIG. 2A). […]

[1] = system: E. tenella (ET) sporozoites invading Madin-Darby bovine kidney (MDBK) cells; experiment: Invasion assay (sporozoite entry into MDBK cells); format: cell-based, Eimeria tenella; conditions: at 50 μg/ml; untreated invasion 20% of the cells
Procedure: FIGS. 3A-C are photomicrographs (left panels) and bar graphs (right panels) illustrating the in vitro effects of formulations composed of A. indica (AI), B. pilosa (BP), or a mixture of A. indica (AI) and B. pilosa (BP) on E. tenella (ET) sporozoite invasion. Madin-Darby bovine kidney (MDBK) cells were incubated with salinomycin (Sal), or plant extracts containing A. indica (AI)(3A), B. pilosa (BP) (3B) or a mixture of AI and BP (3C) at indicated dosages for 0.5 h. The sporozoites were added to the MDBK cells for […]. After washing, the MDBK cells were stained with hematoxylin and eosin (H&E) and counted. The invasion percentage (%) was plotted into bar graphs. The inset represents a magnified area. Scale bars of microscope in 100× and 40× (inset) are 10 μm and 50 μm (inset), respectively. Arrowhead indicates the MDBK cells infected with sporozoites.
Invasion assay. Madin-Darby bovine kidney (MDBK, ATCC® CCL-22) cells, grown in DMEM containing fetal bovine serum (10%) and supplements, were seeded onto glass cover slips in 24 wells at 2×10^5 cells/well. One day later, the cells were pre-incubated with DMEM medium containing salinomycin, or plant extracts and phytochemicals at doses indicated for 0.5 h. Fresh sporozoites (2×10^5) were added to the cells for additional 4 h. […]

[2] = system: E. tenella challenged chickens; experiment: Bloody stools in E. tenella challenged chickens; format: in vivo, chicken; conditions: Day 7 post ET infection, versus infected unmedicated birds (100%), FIG. 5
From the text: (§1) FIG. 4A is a schematic drawing showing the experimental protocol used in in vivo studies. Birds in untreated groups had daily access to standard diet, and birds in treated groups were fed with diet containing salinomycin, A. indica (AI), B. pilosa (BP), or a mixture of AI plus BP. On day 7, chickens were challenged with PBS or E. tenella (ET) sporulated oocysts (1×10^4) by gavage. The survival rate in each group was monitored from day 1 to 7 post infection.
FIG. 5 is a bar graph showing percentage of bloody stools in each chicken group of FIG. 4A-B on Day 7 post E. tenella (ET) infection. Chicken stools were classified on Day 1 to Day 7 post infection.
(§2) Birds, diets, and experimental design. One-day-old Lohmann broiler chicks hatched at Taichung Hatchery (Taiwan) were wing-banded upon arrival, weighed, and randomly placed in Petersime starter brooder units. At 1 to 2 days post-hatching, the birds were given free access to water and diets. The diets were formulated by mixing a base diet with a carrier alone (control diet) or with an indicated dose of a phytogenic formulation comprising Artemisia indica (AI), B. pilosa (BP), or both AI and BP. After grouping, birds were tube-fed with Eimeria oocysts to get infection. Growth performance (body weight and feed conversion), pathology (bloody droppings and gut morphometry) and survival rate were measured and examined (FIG. 4A). […]

[3] = system: E. tenella challenged chickens; experiment: Body weight gain in E. tenella challenged chickens; format: in vivo, chicken; conditions: BP alone 0.01%, AI alone 0.01%
From the text: as §1, §2
Body weights (BW) of the chickens from FIG. 4B were monitored on Days 1, 7 and 14, and body-weight (BW) gains were calculated on Days 7 and 14. […]

[4] = system: E. tenella challenged chickens; experiment: Gross cecal lesion scores in E. tenella challenged chickens; format: in vivo, chicken; conditions: ceca, Day 7 post ET infection
From the text: as §1
(§3) Birds, diets, and experimental design. One-day-old Lohmann broiler chicks hatched at Taichung Hatchery (Taiwan) were wing-banded upon arrival, weighed, and randomly placed in Petersime starter brooder units. At 1 to 2 days post-hatching, the birds were given free access to water and diets. The diets were formulated by mixing a base diet with a carrier alone (control diet) or with an indicated dose of a phytogenic formulation comprising Artemisia indica (AI), B. pilosa (BP), or both AI and BP. After grouping, birds were tube-fed with Eimeria oocysts to get infection. Growth performance (body weight and feed conversion), pathology (bloody droppings and gut morphometry) and survival rate were measured and examined (FIG. 4A). All birds were maintained in the institutional animal facility and handled according to institutional guidelines.
(§4) The anti-coccidial effects of the extracts of A. indica (AI), B. pilosa (BP) and a combination of both extracts were examined in vivo. Chickens were randomly divided into 8 groups and given daily (Day 1 to Day 14) access to standard chicken feed (Groups 1 and 2), feed containing salinomycin (Group 3), or feed containing the plant extracts (Groups 4 to 8) at the indicated doses (FIG. 4A).
Gross lesions in the ceca of the chickens from FIG. 4B were examined and scored. The uninfected unmedicated control chickens (Group 1, Table 4) had no lesions in the ceca (score=0). The ET infection caused more gross cecal lesions in the gut of unmedicated chickens, as evidenced by an average lesion score of 4 (Group 2) on Day 7 post infection.

[5] = system: E. tenella challenged chickens; experiment: Microscopic cecal lesion scores and histology in E. tenella challenged chickens; format: in vivo, chicken; conditions: ceca, Day 7 post ET infection
From the text: as §1, §3
Immunohistochemical staining. Multiple parallel sections of the ceca from chickens that had access to control diet and the diet containing Artemisia indica (AI), B. pilosa (BP), or both for 14 days were flash-frozen. The sections were stained with H&E or anti-insulin antibody, with development of diaminobenzidine tetrahydrochloride, followed by image analysis (Yang et al. Research in Veterinary Science (2015) 98:74-81).
as §4
Mucosal damages caused by coccidia were examined under microscope and scored as microscopic cecal lesions based on the distribution and severity of the mucosal destructions in the chicken cecum.

[6] = system: E. tenella challenged chickens; experiment: Feed conversion rate in E. tenella challenged chickens; format: in vivo, chicken; conditions: BP alone 0.01%, AI alone 0.01% in feed
From the text: as §1
as §3, with “guidelines. […]” for “guidelines.”

[7] = system: E. tenella challenged chickens; experiment: Survival rate in E. tenella challenged chickens; format: in vivo, chicken; conditions: ET-infected chickens (1×10^4 oocysts), substance in feed; infected standard feed 60%; FIG. 4B
From the text: as §1
FIG. 4B is a graph showing survival rate in each group of FIG. 4A. Chickens were divided into eight groups: Group 1 (G1), uninfected and fed with a standard diet; Group 2 (G2), ET-infected and fed with a standard diet; Group 3 (G3) to Group 8 (G8), ET-infected and fed with diet containing salinomycin, BP alone, a combination of BP and different dosages of AI, or AI alone without BP as indicated. Each group has 15 chicks and P values are indicated.
Birds, diets, and experimental design. One-day-old Lohmann broiler chicks hatched at Taichung Hatchery (Taiwan) were wing-banded upon arrival, weighed, and randomly placed in Petersime starter brooder units. At 1 to 2 days post-hatching, the birds were given free access to water and diets. […] Growth performance (body weight and feed conversion), pathology (bloody droppings and gut morphometry) and survival rate were measured and examined (FIG. 4A). […]

[8] = system: E. tenella challenged chickens; experiment: Fecal oocyst excretion in E. tenella challenged chickens; format: in vivo, chicken
From the text: as §1, §3, §4
Excretion of Eimeria oocysts in the feces of ET-infected chickens is an indicator of Eimeria multiplication. The oocysts per gram feces (OPG) in the chickens from FIG. 4B were counted from Day 3 to Day 7 post ET infection. No oocysts in the feces were detected in the uninfected unmedicated control group (Group 1, Table 3). Fecal oocyst excretion was first detected on Day 4 post infection in all the ET-infected groups and reached its peak on Day 7 post infection (Group 2).

SMILES: O=S([O-])S(=O)[O-].[Na+].[Na+] [sodium dithionite]
- reduction of sporulation of ET oocysts as compared to the PBS treatment group (E. tenella oocysts): 40%

SMILES: CC[C@@H](C(=O)[C@@H](C)[C@@H](O)[C@H](C)[C@@H]1O[C@@H]([C@@H](CC)C(=O)O)CC[C@@H]1C)[C@H]1O[C@]2(C=C[C@@H](O)[C@]3(CC[C@@](C)([C@H]4CC[C@](O)(CC)[C@H](C)O4)O3)O2)[C@H](C)C[C@@H]1C [salinomycin, Salinomycin]
- ET sporozoite invasion (invasion percentage of MDBK cells) [1]: 10%
- percentage of bloody stools [2]: significantly decrease in the percentage of bloody stools
- BWG (g) Day 7-1 ([3]; body weight Day 7 minus Day 1, prior to ET infection, substance in feed from Day 1): 27.64 ± 1.16 g
- BWG (g) Day 14-1 ([3]; body weight Day 14 minus Day 1, ET oocysts (1×10^4) on Day 7, substance in feed Day 1 to 14): 56.33 g and 56.33 ± 3.15 g
- Gross lesion score 0: number of chickens ([4]; chickens in grade / n): 0/15
- Gross lesion score 1: number of chickens ([4]; chickens in grade / n): 0/15
- Gross lesion score 2: number of chickens ([4]; chickens in grade / n): 0/15
- Gross lesion score 3: number of chickens ([4]; chickens in grade / n): 1/15
- Gross lesion score 4: number of chickens ([4]; chickens in grade / n): 6/15
- Gross lesion score, Average ([4]; infected unmedicated 4.00, BP alone 0.01%, AI alone 0.01% in feed): 3.86 and 3.86 ± 0.10
- Microscopic lesion score 0 (fraction) [5]: 0/15
- Microscopic lesion score 1 (fraction) [5]: 0/15
- Microscopic lesion score 3 (fraction) [5]: 0/15
- Microscopic lesion score 5 (fraction) [5]: 0/15
- Microscopic lesion score 7 (fraction) [5]: 2/15
- Microscopic lesion score, Average ([5]; infected unmedicated 7.20, BP alone 0.01%, AI alone 0.01% in feed): 6.29 and 6.29 ± 0.13
- FCR Day 7-1 ([6]; feed intake (Kg) divided by body weight gain on day 7, prior to ET infection): 2.42 ± 0.08
- FCR Day 14-1 ([6]; feed intake (Kg) divided by body weight gain on day 14, ET-infected): 3.05 and 3.05 ± 0.13
- survival rate [7]: 100%
- oocysts per gram of feces versus infected unmedicated birds (Group 2), result in words ([8]; Day 3 to Day 7 post ET infection): slightly less oocysts per gram of feces
- Ln(OPG ± 1), 3 days post-infection ([8]; oocysts per gram feces, Day 3 post ET infection, BP alone 0.01%, AI alone 0.01% in feed): 0 ± 0
- Ln(OPG ± 1), 4 days post-infection ([8]; oocysts per gram feces, Day 4 post ET infection, BP alone 0.01%, AI alone 0.01% in feed): 3.45 ± 0.16^a,b
- Ln(OPG ± 1), 5 days post-infection ([8]; oocysts per gram feces, Day 5 post ET infection, BP alone 0.01%, AI alone 0.01% in feed): 4.49 ± 0.02^a,b
- Ln(OPG ± 1), 6 days post-infection ([8]; oocysts per gram feces, Day 6 post ET infection, BP alone 0.01%, AI alone 0.01% in feed): 4.89 ± 0.01^a,b
- Ln(OPG ± 1), 7 days post-infection ([8]; oocysts per gram feces, Day 7 post ET infection, BP alone 0.01%, AI alone 0.01% in feed): 5.33 ± 0.01^a,b
